Results on ten compounds are retold here after patent US9051330B2, “Dithiolopyrrolones with therapeutic activity” (Welichem Biotech Inc., priority 2002, dated 2015).

Assay type in all cases: cell-based, human
One assay relates to Ovcar-3 cell line. Briefly: NCI standard anti-proliferative test, ovarian cancer Ovcar-3 cells. The source says:
(§1) These assays are commonly used by those skilled in the art and are accepted as indicative of antiproliferative activity in mammals. The antiproliferative activities of the compounds of the invention have been determined in cell cultures of human ovarian cancer, using a standard anti-proliferative test of the US National Cancer Institute (NCI). [Monks, A. et al., J. Natl. Cancer Inst. 83(11): 757-766, 1991].
The novel compound had activity against 56 cancer cell lines of a wide range of major cancers. (Table 1a).

For the next assay, the system named is H460. Briefly: NCI standard anti-proliferative test, H460 cells.
A further assay has as its system CCRF-CEM. Briefly: NCI anti-proliferative test, Leukemia CCRF-CEM.
Another assay relates to HL-60(TB). Briefly: NCI anti-proliferative test, Leukemia HL-60(TB).
In a further assay the test system is K-562. Briefly: NCI anti-proliferative test, Leukemia K-562.
A further assay deals with MOLT-4. Briefly: NCI anti-proliferative test, Leukemia MOLT-4.
The test system of another assay is RPMI-8226. Briefly: NCI anti-proliferative test, Leukemia RPMI-8226.
Another assay relates to SR. Briefly: NCI anti-proliferative test, Leukemia SR.
For a further assay, the system named is A549/ATCC. Briefly: NCI anti-proliferative test, Non-Small Cell Lung Cancer A549/ATCC.
Another assay deals with EKVX. Briefly: NCI anti-proliferative test, Non-Small Cell Lung Cancer EKVX.
The next assay has as its system HOP-62. Briefly: NCI anti-proliferative test, Non-Small Cell Lung Cancer HOP-62.
For a further assay, the system named is HOP-92. Briefly: NCI anti-proliferative test, Non-Small Cell Lung Cancer HOP-92.
The subject of another assay is NCI-H226. Briefly: NCI anti-proliferative test, Non-Small Cell Lung Cancer NCI-H226.
The subject of the next assay is NCI-H23. Briefly: NCI anti-proliferative test, Non-Small Cell Lung Cancer NCI-H23.
The subject of another assay is NCI-H322M. Briefly: NCI anti-proliferative test, Non-Small Cell Lung Cancer NCI-H322M.
For the next assay, the system named is NCI-H522. Briefly: NCI anti-proliferative test, Non-Small Cell Lung Cancer NCI-H522.
The next assay deals with COLO 205. Briefly: NCI anti-proliferative test, Colon Cancer COLO 205.
A further assay relates to HCC-2998. Briefly: NCI anti-proliferative test, Colon Cancer HCC-2998.
The test system of the next assay is HCT-116. Briefly: NCI anti-proliferative test, Colon Cancer HCT-116.
The subject of the next assay is HCT-15. Briefly: NCI anti-proliferative test, Colon Cancer HCT-15.
In another assay the test system is HT29. Briefly: NCI anti-proliferative test, Colon Cancer HT29.
A further assay relates to KM12. Briefly: NCI anti-proliferative test, Colon Cancer KM12.
The subject of the next assay is SW-620. Briefly: NCI anti-proliferative test, Colon Cancer SW-620.
The test system of a further assay is SF-268. Briefly: NCI anti-proliferative test, CNS Cancer SF-268.
The next assay deals with SF-295. Briefly: NCI anti-proliferative test, CNS Cancer SF-295.
Another assay concerns SF-539. Briefly: NCI anti-proliferative test, CNS Cancer SF-539.
Another assay concerns SNB-19. Briefly: NCI anti-proliferative test, CNS Cancer SNB-19.
A further assay deals with U251. Briefly: NCI anti-proliferative test, CNS Cancer U251.
The next assay deals with LOX IMVI. Briefly: NCI anti-proliferative test, Melanoma LOX IMVI.
Another assay relates to MALME-3M. Briefly: NCI anti-proliferative test, Melanoma MALME-3M.
The next assay deals with M14. Briefly: NCI anti-proliferative test, Melanoma M14.
The next assay has as its system SK-MEL-2. Briefly: NCI anti-proliferative test, Melanoma SK-MEL-2.
The subject of another assay is SK-MEL-28. Briefly: NCI anti-proliferative test, Melanoma SK-MEL-28.
A further assay relates to SK-MEL-5. Briefly: NCI anti-proliferative test, Melanoma SK-MEL-5.
The test system of the next assay is UACC-257. Briefly: NCI anti-proliferative test, Melanoma UACC-257.
The test system of a further assay is UACC-62. Briefly: NCI anti-proliferative test, Melanoma UACC-62.
For another assay, the system named is IGROV1. Briefly: NCI anti-proliferative test, Ovarian Cancer IGROV1.
Description: as §1

In the next assay the test system is OVCAR-5. Briefly: NCI anti-proliferative test, Ovarian Cancer OVCAR-5.
Description: as §1

A further assay deals with OVCAR-8. Briefly: NCI anti-proliferative test, Ovarian Cancer OVCAR-8.
Description: as §1

The test system of a further assay is 786-0. Briefly: NCI anti-proliferative test, Renal Cancer 786-0.
In another assay the test system is A498. Briefly: NCI anti-proliferative test, Renal Cancer A498.
In another assay the test system is ACHN. Briefly: NCI anti-proliferative test, Renal Cancer ACHN.
A further assay has as its system CAKI-1. Briefly: NCI anti-proliferative test, Renal Cancer CAKI-1.
For another assay, the system named is RXF 393. Briefly: NCI anti-proliferative test, Renal Cancer RXF 393.
The next assay has as its system SN12C. Briefly: NCI anti-proliferative test, Renal Cancer SN12C.
The next assay has as its system TK-10. Briefly: NCI anti-proliferative test, Renal Cancer TK-10.
A further assay relates to UO-31. Briefly: NCI anti-proliferative test, Renal Cancer UO-31.
In a further assay the test system is PC-3. Briefly: NCI anti-proliferative test, Prostate Cancer PC-3.
A further assay has as its system DU-145. Briefly: NCI anti-proliferative test, Prostate Cancer DU-145.
The subject of a further assay is MCF7. Briefly: NCI anti-proliferative test, Breast Cancer MCF7.
A further assay concerns NCI/ADR-RES. Briefly: NCI anti-proliferative test, Breast Cancer NCI/ADR-RES.
Another assay deals with MDA-MB-231/ATCC. Briefly: NCI anti-proliferative test, Breast Cancer MDA-MB-231/ATCC.
The next assay has as its system HS 578T. Briefly: NCI anti-proliferative test, Breast Cancer HS 578T.
Another assay has as its system MDA-MB-435. Briefly: NCI anti-proliferative test, Breast Cancer MDA-MB-435.
The test system of another assay is BT-549. Briefly: NCI anti-proliferative test, Breast Cancer BT-549.
The next assay has as its system T-47D. Briefly: NCI anti-proliferative test, Breast Cancer T-47D.
[1] abbreviates: ovarian cancer cells Ovcar-3, comparison with XN3.
Where [2] appears, read: cancer cell line H460, read-out: IC50 H460.

The structures appear in SMILES notation. Like-named read-outs stand apart in the source and are kept apart here.

As usually defined, the IC50 is the concentration that inhibits the measured activity by half.

As to `COc1ccc(-n2c3cssc-3c(NC(=O)Cc3cccs3)c2=O)c(OC)c1` [Compound 0037], the IC50 in the assay with Ovcar-3 cell line (setting [1]) came to 71 nM.

As for `COc1ccc(-n2c3cssc-3c(NC(=O)c3ccc(F)cc3)c2=O)c(OC)c1` [WBL-018], the 50% inhibitory concentration (IC50) in the assay on Ovcar-3 cell line (setting [1]) stood at 70 nM.

`COc1ccc(-n2c3cssc-3c(NC(=O)c3ccc(CN4CCNCC4)cc3)c2=O)c(OC)c1` [Compound 0069]: the IC50 in the assay on H460 (setting [2]) came out at 40 nM.

Compound `COc1ccc(-n2c3cssc-3c(NC(=O)c3ccc(C(F)(F)F)cc3)c2=O)c(OC)c1` [BLI-093] gave an IC50 in the assay on Ovcar-3 cell line (setting [1]) of 54 nM.

For the compound `COc1ccc(-n2c3cssc-3c(NC(=O)c3cccs3)c2=O)c(OC)c1` [WBL-007], half-maximal inhibition with Ovcar-3 cell line (setting [1]) (IC50) required 28 nM.

For the compound `COc1ccc(-n2c3cssc-3c(NC(=O)c3cc(C(F)(F)F)cc(C(F)(F)F)c3)c2=O)c(OC)c1` [Compound 0058], the IC50 was 30 nM in the assay with Ovcar-3 cell line (Ovarian Cancer, OVCAR-3, 56 cell line panel); 34 nM in the assay with Ovcar-3 cell line (setting [1]); 260 nM in the assay on H460 (Non-Small Cell Lung Cancer, NCI-H460, 56 cell line panel, read-out: IC50); < 10 nM with CCRF-CEM; 19 nM with HL-60(TB); 19 nM with K-562. The IC50 is 150 nM in the assay on MOLT-4; < 10 nM in the assay on RPMI-8226; 20 nM in the assay on SR; 420 nM in the assay with A549/ATCC; 130 nM in the assay with EKVX; 130 nM with HOP-62. In addition, the IC50 in the assay on HOP-92 was found to be 180 nM; with NCI-H226, 270 nM; with NCI-H23 it was 210 nM; in the assay with NCI-H322M, 8560 nM; in the assay on NCI-H522 it was 190 nM; with COLO 205, 150 nM. Besides, the IC50 with HCC-2998 came out at 110 nM; with HCT-116, 16 nM; in the assay with HCT-15, 20 nM; in the assay on HT29 it was 50 nM; in the assay with KM12 it was 2970 nM; with SW-620 it was 34 nM. Moreover, the IC50 in the assay with SF-268 turned out to be 140 nM; in the assay with SF-295, 230 nM; with SF-539, 180 nM; in the assay on SNB-19, 230 nM; in the assay on U251, 150 nM; in the assay on LOX IMVI, 14 nM. Further, the IC50 with MALME-3M came out at 190 nM; with M14, 240 nM; in the assay with SK-MEL-2, 180 nM; with SK-MEL-28, 16 nM; with SK-MEL-5, 120 nM; in the assay on UACC-257, 150 nM. Moreover, the IC50 in the assay with UACC-62 was 190 nM; in the assay with IGROV1 it was 170 nM; with OVCAR-5 it was 450 nM; in the assay with OVCAR-8, 170 nM; in the assay on 786-0 it was 60 nM; in the assay with A498 it was 190 nM. Besides, the IC50 in the assay with ACHN came to 140 nM; in the assay on CAKI-1, 440 nM; in the assay on RXF 393 it was 40 nM; in the assay on SN12C, 120 nM; in the assay on TK-10 it was 1370 nM; with UO-31, 200 nM. In addition, the IC50 in the assay on PC-3 came out at 40 nM; with DU-145, 13 nM; with MCF7, 170 nM; in the assay with NCI/ADR-RES, 1040 nM; in the assay with MDA-MB-231/ATCC, 130 nM; in the assay on HS 578T, 220 nM. The IC50 in the assay with MDA-MB-435 was 220 nM; in the assay on BT-549 it was 150 nM; with T-47D, 13 nM.

As to `COc1ccc(-n2c3cssc-3c(NC(=O)CCC(=O)O)c2=O)c(OC)c1` [BLI-031-2], the IC50 with H460 (setting [2]) is > 50000 nM.

For `COc1ccc(-n2c3cssc-3c(NC(=O)c3ccc([N+](=O)[O-])cc3)c2=O)c(OC)c1` [Compound 0038], 68 nM corresponded to half-maximal inhibition with Ovcar-3 cell line (setting [1]) (IC50).

In the assay with Ovcar-3 cell line (setting [1]), `COc1ccc(-n2c3cssc-3c(NC(=O)c3cc(F)cc(F)c3)c2=O)c(OC)c1` [Compound R3] registered an IC50 of 78 nM.

As to `COc1ccc(-n2c3cssc-3c(NC(=O)c3ccc(F)c(F)c3F)c2=O)c(OC)c1` [Compound R4], half-maximal inhibition in the assay with Ovcar-3 cell line (setting [1]) (IC50) required 46 nM.
